# What was measured:
# Format in all cases: in vivo
# [1] = tested on: ABUTH: velvetleaf (Abutilon theophrasti); experiment: Post-emergent herbicidal test, velvetleaf; conditions: post-emergence, 336 h, 14 days after application, read-out: Visual Growth Reduction (%) 14 Days After Application ABUTH
# Procedure: (§1) Post-Emergent Test: Seeds or nutlets of the desired test plant species were planted in Sun Gro Metro-Mix® 360 planting mixture, which typically has a pH of 6.0 to 6.8 and an organic matter content of about 30 percent, in plastic pots with a surface area of 64 square centimeters (cm^2). When required to ensure good germination and healthy plants, a fungicide treatment and/or other chemical or physical treatment was applied. The plants were grown for 7-21 d in a greenhouse with an approximate 15 h photoperiod which was maintained at about 23-29° C. during the day and 22-28° C. during the night. Nutrients and water were added on a regular basis and supplemental lighting was provided with overhead metal halide 1000-Watt lamps as necessary. The plants were employed for testing when they reached the first or second true leaf stage.
# (§2) A weighed amount, determined by the highest rate to be tested, of each test compound was placed in a 25 mL glass vial and was dissolved in 4 mL of a 97:3 v/v mixture of acetone and DMSO to obtain concentrated stock solutions. […] The concentrated stock solutions obtained were diluted with 20 mL of an aqueous mixture containing acetone, water, isopropyl alcohol, DMSO, Atplus 411F crop oil concentrate, and Triton® X-155 surfactant in a 48.5:39:10:1.5:1.0:0.02 v/v ratio to obtain spray solutions containing the highest application rates. Additional application rates were obtained by serial dilution of 12 mL of the high rate solution into a solution containing 2 mL of a 97:3 v/v mixture of acetone and DMSO and 10 mL of an aqueous mixture containing acetone, water, isopropyl alcohol, DMSO, Atplus 411F crop oil concentrate, and Triton X-155 surfactant in a 48.5:39:10:1.5:1.0:0.02 v/v ratio to obtain ½×, ¼×, ⅛× and 1/16× rates of the high rate. Compound requirements are based upon a 12 mL application volume at a rate of 187 liters per hectare (L/ha). Formulated compounds were applied to the plant material with an overhead Mandel track sprayer equipped with 8002E nozzles calibrated to deliver 187 L/ha over an application area of 0.503 square meters at a spray height of 18 inches (43 cm) above the average plant canopy height. Control plants were sprayed in the same manner with the solvent blank.
# (§3) The treated plants and control plants were placed in a greenhouse as described above and watered by subirrigation to prevent wash-off of the test compounds. After 14 d, the condition of the test plants as compared with that of the untreated plants was determined visually and scored on a scale of 0 to 100 percent where 0 corresponds to no injury and 100 corresponds to complete kill.
# [2] = tested on: BRSNN: oilseed rape, canola (Brassica napus); experiment: Post-emergent herbicidal test, oilseed rape; conditions: post-emergence, 336 h, 14 days after application, read-out: Visual Growth Reduction (%) 14 Days After Application BRSNN
# Procedure: as §1, §2, §3
# [3] = tested on: CIRAR: Canada thistle (Cirsium arvense); experiment: Post-emergent herbicidal test, Canada thistle; conditions: post-emergence, 336 h, 14 days after application, read-out: Visual Growth Reduction (%) 14 Days After Application CIRAR
# Procedure: as §1, §2, §3
# [4] = tested on: EPHHL: wild poinsettia (Euphorbia heterophylla); experiment: Post-emergent herbicidal test, wild poinsettia; conditions: post-emergence, 336 h, 14 days after application, read-out: Visual Growth Reduction (%) 14 Days After Application EPHHL
# Procedure: as §1, §2, §3
# [5] = tested on: IPOHE: ivyleaf morningglory (Ipomoea hederacea); experiment: Post-emergent herbicidal test, ivyleaf morningglory; conditions: post-emergence, 336 h, 14 days after application, read-out: Visual Growth Reduction (%) 14 Days After Application IPOHE
# Procedure: as §1, §2, §3
# [6] = tested on: VIOTR: wild violet (Viola tricolor); experiment: Post-emergent herbicidal test, wild violet; conditions: post-emergence, 336 h, 14 days after application, read-out: Visual Growth Reduction (%) 14 Days After Application VIOTR
# Procedure: as §1, §2, §3
# [7] = tested on: CYPES: yellow nutsedge (Cyperus esculentus); experiment: Post-emergent herbicidal test, yellow nutsedge; conditions: post-emergence, 336 h, 14 days after application, read-out: Visual Growth Reduction (%) 14 Days After Application CYPES
# Procedure: as §1, §2, §3
# [8] = tested on: DIGSA: large crabgrass (Digitaria sanguinalis); experiment: Post-emergent herbicidal test, large crabgrass; conditions: post-emergence, 336 h, 14 days after application, read-out: Visual Growth Reduction (%) 14 Days After Application DIGSA
# Procedure: as §1, §2, §3
# [9] = tested on: ECHCG: barnyardgrass (Echinochloa crus-galli); experiment: Post-emergent herbicidal test, barnyardgrass; conditions: post-emergence, 336 h, 14 days after application, read-out: Visual Growth Reduction (%) 14 Days After Application ECHCG
# Procedure: as §1, §2, §3
# [10] = tested on: SETFA: giant foxtail (Setaria faberi); experiment: Post-emergent herbicidal test, giant foxtail; conditions: post-emergence, 336 h, 14 days after application, read-out: Visual Growth Reduction (%) 14 Days After Application SETFA
# Procedure: as §1, §2, §3
# [11] = tested on: SORVU: shattercane (Sorghum bicolor); experiment: Post-emergent herbicidal test, shattercane; conditions: post-emergence, 336 h, 14 days after application, read-out: Visual Growth Reduction (%) 14 Days After Application SORVU
# Procedure: as §1, §2, §3
smiles,measurement,setting,value
"COC(=O)c1nc(-c2ccc(Cl)c3c2OCO3)c(F)c(N)c1Cl [Compound 1A, methyl 4-amino-3-chloro-6-(7-chlorobenzo[d][1,3]dioxol-4-yl)-5-fluoropicolinate]",pest or weed control at 17.5 g/ha,[1]; 17.5 g ai/ha,85%
same,pest or weed control at 35 g/ha,[1]; 35 g ai/ha,90%
same,pest or weed control at 70 g/ha,[1]; 70 g ai/ha,93%
same,pest or weed control at 140 g/ha,[1]; 140 g ai/ha,95%
same,pest or weed control at 17.5 g/ha,[2]; 17.5 g ai/ha,78%
same,pest or weed control at 35 g/ha,[2]; 35 g ai/ha,88%
same,pest or weed control at 70 g/ha,[2]; 70 g ai/ha,95%
same,pest or weed control at 140 g/ha,[2]; 140 g ai/ha,98%
same,pest or weed control at 17.5 g/ha,[3]; 17.5 g ai/ha,83%
same,pest or weed control at 35 g/ha,[3]; 35 g ai/ha,83%
same,pest or weed control at 70 g/ha,[3]; 70 g ai/ha,88%
same,pest or weed control at 140 g/ha,[3]; 140 g ai/ha,93%
same,pest or weed control at 17.5 g/ha,[4]; 17.5 g ai/ha,3%
same,pest or weed control at 35 g/ha,[4]; 35 g ai/ha,10%
same,pest or weed control at 70 g/ha,[4]; 70 g ai/ha,13%
same,pest or weed control at 140 g/ha,[4]; 140 g ai/ha,18%
same,pest or weed control at 17.5 g/ha,[5]; 17.5 g ai/ha,0%
same,pest or weed control at 35 g/ha,[5]; 35 g ai/ha,0%
same,pest or weed control at 70 g/ha,[5]; 70 g ai/ha,0%
same,pest or weed control at 140 g/ha,[5]; 140 g ai/ha,0%
same,pest or weed control at 17.5 g/ha,[6]; 17.5 g ai/ha,53%
same,pest or weed control at 35 g/ha,[6]; 35 g ai/ha,95%
same,pest or weed control at 70 g/ha,[6]; 70 g ai/ha,75%
same,pest or weed control at 140 g/ha,[6]; 140 g ai/ha,90%
same,pest or weed control at 17.5 g/ha,[7]; 17.5 g ai/ha,78%
same,pest or weed control at 35 g/ha,[7]; 35 g ai/ha,83%
same,pest or weed control at 70 g/ha,[7]; 70 g ai/ha,83%
same,pest or weed control at 140 g/ha,[7]; 140 g ai/ha,80%
same,pest or weed control at 17.5 g/ha,[8]; 17.5 g ai/ha,5%
same,pest or weed control at 35 g/ha,[8]; 35 g ai/ha,20%
same,pest or weed control at 70 g/ha,[8]; 70 g ai/ha,50%
same,pest or weed control at 140 g/ha,[8]; 140 g ai/ha,28%
same,pest or weed control at 17.5 g/ha,[9]; 17.5 g ai/ha,8%
same,pest or weed control at 35 g/ha,[9]; 35 g ai/ha,18%
same,pest or weed control at 70 g/ha,[9]; 70 g ai/ha,28%
same,pest or weed control at 140 g/ha,[9]; 140 g ai/ha,30%
same,pest or weed control at 17.5 g/ha,[10]; 17.5 g ai/ha,15%
same,pest or weed control at 35 g/ha,[10]; 35 g ai/ha,15%
same,pest or weed control at 70 g/ha,[10]; 70 g ai/ha,25%
same,pest or weed control at 140 g/ha,[10]; 140 g ai/ha,30%
same,pest or weed control at 17.5 g/ha,[11]; 17.5 g ai/ha,25%
same,pest or weed control at 35 g/ha,[11]; 35 g ai/ha,43%
same,pest or weed control at 70 g/ha,[11]; 70 g ai/ha,55%
same,pest or weed control at 140 g/ha,[11]; 140 g ai/ha,65%

# From patent publication US11718604B2, “4-amino-6-(1,3-benzodioxole)picolinates and their use as herbicides” (Dow AgroSciences LLC, priority 2018, dated 2023)
